89 compounds from a melting point compilation (Tetko et al.; mined from patent text by program, amines drawn as free bases though some values may be those of a salt) can be followed below.

As to `CCCCCCCCCCCCCCCCCCC(COC(C)=O)(COC(C)=O)NC(C)=O`, the melting point (usually the temperature, or range, at which the solid turns liquid) lay in the range of 90 to 91 °C.

`COCc1cn(-c2cccc(C(F)(F)F)c2)nc(C(=O)N(C)OC)c1=O`: the melting point was in the range of 157 to 159 °C.

`O=C(CC(=O)C(F)(F)F)Nc1cc(-c2cccs2)n[nH]1` registered a melting point of 259 to 261 °C.

As for `C#CCn1cc(CO)cc1C(=O)OC`, the melting point turned out to be 77 °C.

As to `COc1ccc2cc([C@H](C)C(=O)OCCCN3C(=O)OC[C@H]3C(C)(C)S)ccc2c1`, the melting point stood at 118 °C.

The compound `CCCCCC(=O)ONC(=N)c1ccc(NC(=O)CCCC(=O)Nc2ccc(C(=N)NOC(=O)CCCCC)cc2)cc1` returned a melting point of 182 to 184 °C.

Compound `Nc1cc(-c2cccnc2)nc(-c2ccco2)n1` returned a melting point of 233 °C.

On to `O=C1Nc2ccc(Cl)cc2C(OCc2ccccn2)(C(F)(F)F)CN1C1CC1` (centres undefined), for which the melting point was 170 to 172 °C.

Consider `O=C(O)C1c2ccccc2C=Cc2ccccc21`, for which the melting point lay in the range of 244 to 245 °C.

`CCN(CC)C(=O)c1c(C(C)C)cc(OC)cc1S(N)(=O)=O` returned a melting point of 122 to 125 °C.

For `Cc1nc(-c2ccc(C#CC3(O)CN4CCC3CC4)cc2)no1` (single isomer, unassigned; (-)), the melting point was in the range of 211 to 212 °C.

Regarding `CC1(C)CC(O)CC(C)(C)N1N=Nc1ccccc1Br`, the melting point worked out at 81 °C.

Take `CC(C)(Cc1cc2cc(OCc3ccc4ccccc4n3)ccc2n1Cc1ccc(Cl)cc1)C(=O)O`: the melting point fell in the range of 193 to 194 °C.

On to `CSC(Oc1ccc2ncc(I)cc2c1)C(=O)NC(C)(C)C` (centres undefined), for which the melting point lay within 165 to 166 °C.

In the case of `CC1CC(=O)NN=C1c1cc2cc(O)c(O)cc2s1` (centres undefined), the melting point is above 270 °C.

Consider `N#Cc1cccc(Oc2ncccc2OCCCc2ccncc2O)c1`, for which the melting point lay within 84 to 86 °C.

Turning to `O=C(O)COc1ccc(OCc2ccccc2)cc1OCc1ccccc1`, the melting point amounted to 72 °C.

Turning to `O=C(CN1CCN(c2ccc(CO)c(Cl)c2)CC1)c1cc2ccccc2o1`, the melting point lay within 169 to 172 °C.

`OCC1CC(O)C(n2c(Br)nc3cc(Cl)c(Cl)cc32)C1` (centres undefined): the melting point lay within 218 to 220 °C.

`COC(=O)C(C)=Cc1cc(N)ccc1Cl` yielded a melting point of 80 °C.

For the compound `CCC(=CCn1oc(=O)[nH]c1=O)c1ccc2c(Cc3ccccc3)c(CC)oc2c1`, the melting point lay within 118 to 120 °C.

In turn, `COc1nc2ccc3c(c2o1)C(CCNC(C)=O)CC3` (centres undefined) came in with a melting point of 126 to 128 °C.

Compound `NCCSC[C@H]1O[C@@H](n2cnc3c(NCc4ccc([N+](=O)[O-])cc4)ncnc32)[C@H](O)[C@@H]1O` came in with a melting point of 115 to 117 °C.

The compound `O=C(Nc1nccs1)c1nc(-c2ccc([N+](=O)[O-])cc2)[nH]c1-c1ccc(CCl)cc1` gave a melting point above 280 °C.

As to `Cc1cc(N2C=CC(=O)CC2)nn2cnnc12`, the melting point was 264 to 266 °C.

In the case of `Cc1c(OCc2ccccc2)c(=O)ccn1CC(=O)NCCCCNCCCNC(=O)Cn1ccc(=O)c(OCc2ccccc2)c1C`, the melting point was 89 °C.

In the case of `CC(=O)N1CCN(CC#CCn2cncc2C)C1=O`, the melting point lay in the range of 93 to 95 °C.

For the compound `CCOC(=O)C[C@@H]1C(=O)N(S(=O)(=O)c2ccc(OC)cc2)C=C[C@@H]1c1ccc(OC)cc1`, the melting point lay in the range of 107 to 110 °C.

With `COc1ccc2[nH]c3cc(-c4cc([N+](=O)[O-])ccc4OC)c4c(c3c2c1)C(=O)NC4=O`, the melting point is 302 to 304 °C.

`CCOC(=O)C1=C(C)NC(CF)=C(C(=O)OCC)C1c1ccccc1C(F)(F)F` (centres undefined) displayed a melting point of 84 to 86 °C.

On to `CC[C@@]12C[C@@](C)(O)[C@](O)(c3ccccc3)C[C@H]1CCc1cc(OCC(=O)O)ccc12`, for which the melting point lay within 190 to 191 °C.

As for `CCOC(=O)C1(C(=O)OCC)CCc2cc(Br)ccc2N1Cc1ccccc1`, the melting point fell in the range of 116 to 117 °C.

The compound `O=C(O)C1CCN(C(=O)OCC2c3ccccc3-c3ccccc32)CC1` yielded a melting point of 187 to 189 °C.

The compound `CCCCCCCCCCCC(=O)NC(=O)OCc1nc(C(C)C)c(Sc2cc(Cl)cc(Cl)c2)n1CC` displayed a melting point of 100 to 102 °C.

In turn, `O=C1Nc2ccc(F)nc2N2CCNCC12` (centres undefined) had a melting point of 305 to 308 °C.

Compound `Nc1ccc(Cc2ccccc2)cn1` had a melting point of 79 to 80 °C.

`CCOC(=O)C(=CNc1cc(O)cc(O)c1)C(=O)OCC` had a melting point of 190 to 192 °C.

Turning to `O=S(=O)(c1ccccc1)N1CC2CCC(C1)O2`, the melting point lay within 166 to 168 °C.

For the compound `Cc1nnc2n1-c1ccc(C#CCOc3ccccc3)cc1C(c1ccccc1Cl)=NC2`, the melting point is 160 to 162 °C.

`CC/C=C/CNc1cccc(-c2ccnc3c(C(=O)c4cccs4)cnn23)c1` displayed a melting point of 72 to 75 °C.

The compound `COc1cc2nc(CN(C)C)nc(Cl)c2cc1OC` had a melting point of 78 to 80 °C.

Consider `CN(C)C(=O)c1c(S(N)(=O)=O)ccn1C`, for which the melting point fell in the range of 185 to 190 °C.

Turning to `CN1CN(C)C(=N[N+](=O)[O-])N(Cc2ccc(Cl)nc2)C1`, the melting point lay in the range of 116 to 117 °C.

In turn, `CN1C(=O)C2(COc3cc4c(cc32)OCCO4)c2c(Oc3ccc(F)cc3)cccc21` (centres undefined) showed a melting point of 151 to 153 °C.

With `CC(=O)Nc1cccc(Nc2ncnc3[nH]cc(C(=O)c4ccccc4C)c23)c1`, the melting point was above 300 °C.

On to `COc1c(OC)c(OC(C)=O)c2cc(Cl)ccc2c1O`, for which the melting point is 106 to 107 °C.

Consider `Cc1ccc(-n2cc(C(=O)O)c(=O)c3ccc(-c4ccncc4)cc32)cc1C`, for which the melting point was in the range of 301 to 303 °C.

The compound `O=C(Nc1cc(C2OCCCO2)ccc1O)c1ccccc1OCCCCc1ccccc1` had a melting point of 122 to 123 °C.

The compound `N#Cc1ccc(Oc2ccccc2)cc1C#N` returned a melting point of 98 to 100 °C.

The compound `Cc1cc(C)c(C2C(=O)CCCC2=O)c(C)c1` came in with a melting point of 196 to 198 °C.

Regarding `Cc1c(CNC2CCCC2)[nH]c2c(C)c(NC(=O)c3ccc(OC[C@@H]4CCCO4)cc3)ccc12`, the melting point lay within 107 to 109 °C.

As to `O=C1C[C@@H]2O[C@@H](CS(=O)(=O)c3ccccc3)CN12` (racemic), the melting point lay in the range of 144 to 146 °C.

As to `CCOc1ccccc1C=[N+]([O-])C1CCC1`, the melting point was 76 °C.

`N#Cc1ccccc1C1=CC2CC(=O)CC2C1` (centres undefined) displayed a melting point of 36 to 37 °C.

`OCCCNC1=Nc2ccccc2C1(O)c1ccccc1` (centres undefined) came in with a melting point of 215 to 217 °C.

For `COc1cccc2c1OC(CO)CC2` (centres undefined), the melting point lay within 57 to 58 °C.

Consider `COc1ccc(F)cc1NC(=O)Nc1ccc(N2CCN(C(=O)Nc3ccc(OCC(O)CO)cc3C(F)(F)F)CC2)nc1` (centres undefined), for which the melting point was 195 °C.

In the case of `N#Cc1cc(F)ccc1-c1cncc(OC2SCC(O)C(O)C2O)c1` (centres undefined), the melting point was in the range of 198 to 200 °C.

Regarding `COc1ccc(N2CNC(=O)C23CCN(CCCN(c2ccccc2)c2ccccc2)CC3)cc1`, the melting point fell in the range of 156 to 158 °C.

The compound `COc1ncccc1NC(=NC#N)NC(NC(=O)c1cccc(Cl)c1)C(C)(Cl)Cl` (centres undefined) came in with a melting point of 115 to 116 °C.

The compound `COc1ccc(C[C@@H](NC(=O)c2cccc3ccccc23)[C@@H](O)c2ccc(F)cc2)cc1` (racemic) had a melting point of 198 to 199 °C.

On to `CCC(CCN=C(O)C(Br)=C(Br)C(=O)O)c1ccccc1` (centres undefined), for which the melting point lay in the range of 71 to 73 °C.

`C#CCN(C(C)=O)c1cccc(C(=O)C=CN(C)C)c1` yielded a melting point of 98 to 101 °C.

`Cc1ccsc1C(=O)C(=CN(C)C)c1ccc(C(F)(F)F)cc1[N+](=O)[O-]` registered a melting point of 118 °C.

Turning to `Cc1cc2c3c(cc(Br)cc3c1Br)C(=O)N(O)C2=O`, the melting point lay within 320 to 323 °C.

Compound `Cc1ccc(C(=O)Cn2cc(Cl)cnc2=O)c(C)c1` displayed a melting point of 221 to 222 °C.

`CC(=O)N1CCCSC1=C[N+](=O)[O-]`: the melting point fell in the range of 91 to 92.5 °C.

`CC1CNc2ccc(NC3=NCCN3)c(Br)c2N1` (centres undefined) registered a melting point of 250 to 251 °C.

As to `CCOc1ccc(CN2C(=O)SC(S(=O)(=O)c3ccc(C)cc3)C2=O)c(OCC)c1` (centres undefined), the melting point lay in the range of 121 to 123 °C.

For the compound `CCCC=CCC1CC(=O)N(c2cc(Cc3n[nH]c(=O)c4ccccc34)ccc2F)C1=O` (centres undefined), the melting point lay within 146 to 149 °C.

Consider `Cc1ccc(P(=O)(C(=O)c2c(C)cc(C)cc2C)C(=O)c2c(C)cc(C)cc2C)cc1`, for which the melting point was in the range of 151 to 152 °C.

In turn, `CNc1nc(-c2cccc(C(=O)Nc3cccnc3)c2)c2cc(OC)c(OC)cc2n1` gave a melting point of 238 to 240 °C.

For the compound `N#CCCN1C(=O)C(O)(c2cccc(Cl)c2)c2ccccc21` (centres undefined), the melting point lay within 149 to 150 °C.

As to `O=c1nc(-c2cccc(Cl)c2)c2cc(C(c3ccc(Cl)cc3)n3ccnc3)ccc2[nH]1` (centres undefined), the melting point was determined as 255 °C.

On to `COC(=O)CC(=O)c1cc2cc(OC)c(OC)cc2s1`, for which the melting point was in the range of 129 to 130 °C.

In turn, `O=C(O)Cc1cc2c(s1)-c1ccccc1SC2` yielded a melting point of 106 to 110 °C.

Turning to `Cc1onc(-c2ccccc2)c1-c1ccc(S(=O)(=O)NCC(=O)O)cc1`, the melting point was in the range of 242 to 248 °C.

`COc1cc2onc(N)c2cc1Br` displayed a melting point of 226 to 227 °C.

As for `CCC1(F)CN(C2CCCC2)c2nc(Nc3ccc(C(=O)NC4CCN(C)CC4)cc3OC)ncc2N(C)C1=O` (centres undefined), the melting point lay in the range of 149 to 153 °C.

`CCOCCOc1ccc(CCNC(=O)/C=C/c2cccs2)cc1S(N)(=O)=O` yielded a melting point of 52 °C.

`COC(=O)c1nn(-c2ccc(Cl)cc2Cl)c(-c2ccc(Cl)cc2)c1CF` had a melting point of 114 °C.

`CCCC1=NN(c2ccccc2C(=O)O)C(=O)C1=CNc1ccccc1CC` came in with a melting point of 127 °C.

The compound `CC(=O)c1ccc(Oc2ccc(O)cc2)cc1` showed a melting point of 159 to 161 °C.

`CC1(c2cc3ccccc3[nH]2)CCCCC1` displayed a melting point of 50 °C.

`C=C1C(=O)CCC(C)(C)C1=O` returned a melting point of 115 to 116 °C.

With `O=C(O)C1=Cc2cc(Cl)cc(-c3ccccc3)c2OC1C(F)(F)F` (centres undefined), the melting point fell in the range of 196 to 198 °C.

Take `COC(=O)C1Cc2c(cccc2C(C)C)C(=O)CS1` (centres undefined): the melting point was in the range of 116 to 117 °C.

The compound `NCCCc1ccc2c(n1)NCCC2` gave a melting point of 66 to 68.5 °C.

`COC(=O)C1=C(C)NC(C)=C(C(=O)OCCN2CCN(c3cccc(Cl)c3Cl)CC2)C1c1cccc([N+](=O)[O-])c1` (centres undefined) gave a melting point of 189 to 190 °C.
